Measurements published in PubChem BioAssay AID298 (DTP/NCI, 2004).
Several values for one entry are separate records, joined by “and”; a condition that tells them apart may be missing. Identical values can stand only once. Results filed as inconclusive are left out. *1 amine or outer side, *2 acyl side, *3 side chain or, on linkers, in order; H or OH if unused. Where a SMILES comes first, the peptide text is derived from it. Bridges are numbered along the chain shown (N, C = ends). Roman numbers before positions name the chains, in order. [ ]: non-standard residue; d: D form. Actinocin(9to1) = Cc1c2oc3c(C)ccc(C(=O)[*:1])c3nc-2c(C(=O)[*:2])c(N)c1=O; aThr = C[C@H](O)[C@H](N)C(=O)O; NMeV = CN[C@H](C(=O)O)C(C)C; Sar = CNCC(=O)O

System: MX-1 breast xenograft, intrarenal, nude mice, tumor weight
Test: NCI In Vivo Anticancer Drug Screen. Data for tumor model Human Mammary Carcinoma MX-1 Xenograft (intrarenal inoculation) in NU/NU BALB/C (nude) mice
Settings: endpoint: mean tumor weight change, higher = larger tumour
Protocol: The antitumor activity of compounds was measured in mice bearing transplantable tumors. Survival or tumor size were measured and the results are expressed as the measurement made in the treated group (T) divided by the measurement made in the vehicle treated control group (C). The tumor model used in this assay is Human Mammary Carcinoma MX-1 Xenograft (intrarenal inoculation) in NU/NU BALB/C (nude) mice

[1] = dose: 1200.0 mg/kg/injection, schedule: Q04DX003 (ip), vehicle: saline with Tween-80
[2] = dose: 75.0 mg/kg/injection, schedule: Q04DX003 (sc), vehicle: saline
[3] = dose: 150.0 mg/kg/injection, schedule: Q04DX003 (sc), vehicle: saline

## COC1/C=C/C=C(/C)Cc2cc(O)c(Cl)c(c2)N(C)C(=O)CC(OC(=O)C(C)C)C2(C)OC2C(C)C2CC1(O)NC(=O)O2 (stereo unspecified)
dose: 1.0 mg/kg/injection, schedule: Q04DX003 (sc), vehicle: saline + alcohol
  T/C: 70 % of control
dose: 2.0 mg/kg/injection, schedule: Q04DX003 (sc), vehicle: saline + alcohol
  T/C: 33 % of control
dose: 4.0 mg/kg/injection, schedule: Q04DX003 (sc), vehicle: saline + alcohol
  T/C: -47 % of control
dose: 8.0 mg/kg/injection, schedule: Q04DX003 (sc), vehicle: saline + alcohol
  T/C: -100 % of control

## O=C1C=C(N2CC2)C(=O)C(N2CC2)=C1N1CC1
dose: 25.0 micrograms/kg/injection, schedule: Q04DX003 (ip), vehicle: saline
  T/C: 4 % of control
dose: 400.0 micrograms/kg/injection, schedule: Q04DX003 (ip), vehicle: saline
  T/C: -100 % of control

## CC(C)NC(=O)N(CCCCBr)N=O
dose: 150.0 mg/kg/injection, schedule: Q04DX003 (sc), vehicle: Klucel (hydroxypropylcellulose) (HPC)
  T/C: -61 % of control
dose: 300.0 mg/kg/injection, schedule: Q04DX003 (sc), vehicle: Klucel (hydroxypropylcellulose) (HPC)
  T/C: -100 % of control

## COc1cc(NCc2ccc3nc(N)nc(N)c3c2C)cc(OC)c1OC
dose: 15.0 mg/kg/injection, schedule: Q04DX003 (ip), vehicle: Klucel (hydroxypropylcellulose) (HPC)
  T/C: 96 % of control and 101 % of control
dose: 30.0 mg/kg/injection, schedule: Q04DX003 (ip), vehicle: Klucel (hydroxypropylcellulose) (HPC)
  T/C: 81 % of control and 95 % of control
dose: 120.0 mg/kg/injection, schedule: Q04DX003 (ip), vehicle: Klucel (hydroxypropylcellulose) (HPC)
  T/C: 56 % of control and 71 % of control

## NCc1cc(O)c(O)c(O)c1
dose: 150.0 mg/kg/injection, schedule: Q04DX003 (ip), vehicle: water
  T/C: 99 % of control
dose: 300.0 mg/kg/injection, schedule: Q04DX003 (ip), vehicle: water
  T/C: 120 % of control
dose: 600.0 mg/kg/injection, schedule: Q04DX003 (ip), vehicle: water
  T/C: 89 % of control
dose: 1200.0 mg/kg/injection, schedule: Q04DX003 (ip), vehicle: water
  T/C: 91 % of control

## COc1cccc2c1C(=N)c1c(O)c3c(c(O)c1C2=O)C[C@@](O)(C(C)=O)C[C@@H]3OC1CC(N)C(O)C(C)O1 (stereo partly specified)
dose: 4.0 mg/kg/injection, schedule: Q01DX010 (sc), vehicle: water
  T/C: 51 % of control
dose: 8.0 mg/kg/injection, schedule: Q01DX010 (sc), vehicle: water
  T/C: 56 % of control
dose: 16.0 mg/kg/injection, schedule: Q01DX010 (sc), vehicle: water
  T/C: 56 % of control

## CCC1(O)C(=O)OCc2c1cc1n(c2=O)Cc2cc3cc4c(cc3nc2-1)OCO4 (stereo unspecified)
dose: 4.0 mg/kg/injection, schedule: Q04DX003 (ip), vehicle: saline with Tween-80
  T/C: -100 % of control

## CCC1(O)C(=O)OCc2c1cc1n(c2=O)Cc2cc3cc(N)ccc3nc2-1 (stereo unspecified)
dose: 1.88 mg/kg/injection, schedule: Q04DX003 (ip), vehicle: suspension in saline
  T/C: 5 % of control
dose: 3.75 mg/kg/injection, schedule: Q04DX003 (ip), vehicle: suspension in saline
  T/C: 1 % of control
dose: 7.5 mg/kg/injection, schedule: Q04DX003 (ip), vehicle: suspension in saline
  T/C: -100 % of control
dose: 15.0 mg/kg/injection, schedule: Q04DX003 (ip), vehicle: suspension in saline
  T/C: -100 % of control

## COc1cc2c[n+](C)c3c4cc5c(cc4ccc3c2cc1OC)OCO5
dose: 25.0 mg/kg/injection, schedule: Q04DX003 (sc), vehicle: saline with Tween-80
  T/C: 94 % of control
dose: 50.0 mg/kg/injection, schedule: Q04DX003 (sc), vehicle: saline with Tween-80
  T/C: 116 % of control
dose: 100.0 mg/kg/injection, schedule: Q04DX003 (sc), vehicle: saline with Tween-80
  T/C: 111 % of control
dose: 200.0 mg/kg/injection, schedule: Q04DX003 (sc), vehicle: saline with Tween-80
  T/C: 108 % of control

## COC1=C(OC)C(=O)C(SC/C=C(\C)CCCC(C)CCCC(C)CCCC(C)C)=CC1=O (stereo unspecified)
dose: 300.0 mg/kg/injection, schedule: Q04DX003 (ip), vehicle: saline with Tween-80
  T/C: 220 % of control
dose: 600.0 mg/kg/injection, schedule: Q04DX003 (ip), vehicle: saline with Tween-80
  T/C: 61 % of control
[1]
  T/C: 75 % of control

## C1CCC2C[N-]CCC2C1.C1CCC2C[N-]CCC2C1.C1CCC2C[N-]CCC2C1.C1CCC2C[N-]CCC2C1.[Cl][Rh][Cl] (stereo unspecified)
dose: 72.0 mg/kg/injection, schedule: Q04DX003 (sc), vehicle: saline with Tween-80
  T/C: 112 % of control
dose: 144.0 mg/kg/injection, schedule: Q04DX003 (sc), vehicle: saline with Tween-80
  T/C: 124 % of control
dose: 576.0 mg/kg/injection, schedule: Q04DX003 (sc), vehicle: saline with Tween-80
  T/C: 67 % of control

## COc1cc(Cc2nccc3cc(OC)c(OC)cc23)c(C(C)=O)cc1OC
dose: 300.0 mg/kg/injection, schedule: Q04DX003 (sc), vehicle: saline
  T/C: 54 % of control
dose: 600.0 mg/kg/injection, schedule: Q04DX003 (sc), vehicle: saline
  T/C: 68 % of control
dose: 1200.0 mg/kg/injection, schedule: Q04DX003 (sc), vehicle: saline
  T/C: 48 % of control

## CCOc1cc2c(cc1C(C)c1ccc(OC)cc1)OCO2 (stereo unspecified)
dose: 300.0 mg/kg/injection, schedule: Q04DX003 (sc), vehicle: distilled water + alcohol
  T/C: 36 % of control
dose: 600.0 mg/kg/injection, schedule: Q04DX003 (sc), vehicle: distilled water + alcohol
  T/C: 90 % of control
dose: 1200.0 mg/kg/injection, schedule: Q04DX003 (sc), vehicle: distilled water + alcohol
  T/C: 76 % of control
dose: 2400.0 mg/kg/injection, schedule: Q04DX003 (sc), vehicle: distilled water + alcohol
  T/C: 111 % of control

## CCC(C(=O)O)C(=O)O.[NH2-].[NH2-].[Pt+2]
dose: 37.5 mg/kg/injection, schedule: Q04DX003 (sc), vehicle: saline
  T/C: -27 % of control
dose: 37.5 mg/kg/injection, schedule: Q04DX003 (sc), vehicle: suspension in saline
  T/C: -100 % of control
[2]
  T/C: -100 % of control
dose: 75.0 mg/kg/injection, schedule: Q04DX003 (sc), vehicle: suspension in saline
  T/C: -100 % of control
[3]
  T/C: -100 % of control
dose: 150.0 mg/kg/injection, schedule: Q04DX003 (sc), vehicle: suspension in saline
  T/C: -100 % of control

## CC1CN1P1(N2CC2C)=NP(N2CC2C)(N2CC2C)=NP(N2CC2C)(N2CC2C)=N1 (stereo unspecified)
[2]
  T/C: 51 % of control
[3]
  T/C: 3 % of control

## CN=C(NC#N)NCCSCc1nc[nH]c1C
dose: 600.0 mg/kg/injection, schedule: Q04DX003 (sc), vehicle: Klucel (hydroxypropylcellulose) (HPC)
  T/C: 108 % of control

## O=C(Nc1ccccc1CCl)Nc1ccccc1CCl
[1]
  T/C: 9 % of control and 12 % of control and 20 % of control

## C[C@]12CC[C@@H]3c4ccc(OC(=O)Cc5ccc(N(CCCl)CCCl)cc5)cc4CC[C@H]3[C@@H]1CC[C@@H]2OC(=O)Cc1ccc(N(CCCl)CCCl)cc1
dose: 300.0 mg/kg/injection, schedule: Q04DX003 (sc), vehicle: saline with Tween-80
  T/C: 98 % of control
dose: 600.0 mg/kg/injection, schedule: Q04DX003 (sc), vehicle: saline with Tween-80
  T/C: 24 % of control
dose: 1200.0 mg/kg/injection, schedule: Q04DX003 (sc), vehicle: saline with Tween-80
  T/C: 7 % of control

## O=c1c(O)c(O)c1=O.[NH2-].[NH2-].[NH2-].[NH2-].[NH2-].[Ru+5]
dose: 12.5 mg/kg/injection, schedule: Q04DX003 (ip), vehicle: suspension in saline
  T/C: 98 % of control
dose: 25.0 mg/kg/injection, schedule: Q04DX003 (ip), vehicle: suspension in saline
  T/C: 74 % of control
dose: 50.0 mg/kg/injection, schedule: Q04DX003 (ip), vehicle: suspension in saline
  T/C: 60 % of control

## Cc1c2oc3c(C)ccc(C(=O)N[C@@H]4C(=O)N[C@H](C(C)C)C(=O)N5CCC[C@H]5C(=O)N(C)CC(=O)N(C)[C@@H](C(C)C)C(=O)O[C@H]4C)c3nc-2c(C(=O)N[C@@H]2C(=O)N[C@H](C(C)C)C(=O)N3CCC[C@H]3C(=O)N(C)CC(=O)N(C)[C@@H](C(C)C)C(=O)O[C@H]2C)c(N)c1=O (I: [aThr][dV]P[Sar][NMeV] / II: [aThr][dV]P[Sar][NMeV]; ester I:1-I:C, II:1-II:C; linker I:N-II:N via Actinocin(9to1))
dose: 25.0 micrograms/kg/injection, schedule: Q01DX010 (sc), vehicle: saline
  T/C: 100 % of control
dose: 50.0 micrograms/kg/injection, schedule: Q01DX010 (sc), vehicle: saline
  T/C: 49 % of control
dose: 100.0 micrograms/kg/injection, schedule: Q01DX010 (sc), vehicle: saline
  T/C: 12 % of control
dose: 200.0 micrograms/kg/injection, schedule: Q01DX010 (sc), vehicle: saline
  T/C: 1 % of control

## O=C(/C=C/c1cccnc1)/C=C/c1cccnc1
dose: 50.0 mg/kg/injection, schedule: Q04DX003 (ip), vehicle: Klucel (hydroxypropylcellulose) (HPC)
  T/C: 67 % of control
